Reference: the supplement of paper PMC10307832

Columns and labels:
Test in all cases: relative viability (nuclei count vs DMSO), 5 days (fraction); higher = more cells survive
Bleomycin + Dasatinib = compound: CC1=C(N=C(N=C1N)[C@H](CC(=O)N)NC[C@@H](C(=O)N)N)C(=O)N[C@@H]([C@H](C2=CN=CN2)OC3C(C(C(C(O3)CO)O)O)OC4C(C(C(C(O4)CO)O)OC(=O)N)O)C(=O)N[C@H](C)[C@H]([C@H](C)C(=O)N[C@@H]([C@@H](C)O)C(=O)NCCC5=NC(=CS5)C6=NC(=CS6)C(=O)NCCC[S+](C)C)O [Bleomycin] + Cc1nc(Nc2ncc(C(=O)Nc3c(C)cccc3Cl)s2)cc(N2CCN(CCO)CC2)n1 [Dasatinib] (partner 0.075 µM); conditions: main component drawn
In short: (§1)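 For relative viability, nuclei counts in treated wells were divided by those in vehicle wells. Lung cancer cell lines had been pin-tool dosed in 1536-well plates the day after seeding and cultured for 5 days, then fixed and stained in one step (final 0.05% Triton X-100, 1% formaldehyde, 1 ug/ml Hoechst) and imaged at 4×. Doses were one drug alone or a fixed anchor-drug dose plus five library-drug doses (not always all listed) in √10 steps, and values are duplicate-plate medians.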

Bleomycin + Alpelisib = compound: CC1=C(N=C(N=C1N)[C@H](CC(=O)N)NC[C@@H](C(=O)N)N)C(=O)N[C@@H]([C@H](C2=CN=CN2)OC3C(C(C(C(O3)CO)O)O)OC4C(C(C(C(O4)CO)O)OC(=O)N)O)C(=O)N[C@H](C)[C@H]([C@H](C)C(=O)N[C@@H]([C@@H](C)O)C(=O)NCCC5=NC(=CS5)C6=NC(=CS6)C(=O)NCCC[S+](C)C)O [Bleomycin] + Cc1nc(NC(=O)N2CCC[C@H]2C(N)=O)sc1-c1ccnc(C(C)(C)C(F)(F)F)c1 [Alpelisib] (partner 2 µM); conditions: main component drawn
In short: as §1

Etoposide + Crizotinib = compound: COc1cc([C@@H]2c3cc4c(cc3[C@@H](O[C@@H]3O[C@@H]5CO[C@@H](C)O[C@H]5[C@H](O)[C@H]3O)[C@H]3COC(=O)[C@H]23)OCO4)cc(OC)c1O [Etoposide] + C[C@@H](Oc1cc(-c2cnn(C3CCNCC3)c2)cnc1N)c1c(Cl)ccc(F)c1Cl [Crizotinib] (partner 1 µM)
In short: as §1

Etoposide + Foretinib = compound: COc1cc([C@@H]2c3cc4c(cc3[C@@H](O[C@@H]3O[C@@H]5CO[C@@H](C)O[C@H]5[C@H](O)[C@H]3O)[C@H]3COC(=O)[C@H]23)OCO4)cc(OC)c1O [Etoposide] + COc1cc2c(Oc3ccc(NC(=O)C4(C(=O)Nc5ccc(F)cc5)CC4)cc3F)ccnc2cc1OCCCN1CCOCC1 [Foretinib] (partner 0.25 µM)
In short: as §1

Row | Cell Line | relative viability (Bleomycin + Dasatinib; first compound 0.01 µM) | relative viability (Bleomycin + Dasatinib; first compound 0.03162 µM) | relative viability (Bleomycin + Dasatinib; first compound 0.1 µM) | relative viability (Bleomycin + Dasatinib; first compound 0.3162 µM) | relative viability (Bleomycin + Dasatinib; first compound 1 µM) | relative viability (Bleomycin + Alpelisib; first compound 0.01 µM) | relative viability (Bleomycin + Alpelisib; first compound 0.03162 µM) | relative viability (Bleomycin + Alpelisib; first compound 0.1 µM) | relative viability (Bleomycin + Alpelisib; first compound 0.3162 µM) | relative viability (Bleomycin + Alpelisib; first compound 1 µM) | relative viability (Etoposide + Crizotinib; first compound 0.01 µM) | relative viability (Etoposide + Crizotinib; first compound 0.03162 µM) | relative viability (Etoposide + Crizotinib; first compound 0.1 µM) | relative viability (Etoposide + Crizotinib; first compound 0.3162 µM) | relative viability (Etoposide + Crizotinib; first compound 1 µM) | relative viability (Etoposide + Foretinib; first compound 0.01 µM) | relative viability (Etoposide + Foretinib; first compound 0.03162 µM) | relative viability (Etoposide + Foretinib; first compound 0.1 µM) | relative viability (Etoposide + Foretinib; first compound 0.3162 µM) | relative viability (Etoposide + Foretinib; first compound 1 µM)
1 | NCI-H1993 | 0.548 | 0.604 | 0.597 | 0.462 | 0.464 | 0.648 | 0.642 | 0.618 | 0.536 | 0.522 | 0.758 | 0.856 | 0.734 | 0.712 | 0.473 | 0.788 | 0.906 | 0.557 | 0.733 | 0.51
2 | NCI-H2009 | 0.298 | 0.297 | 0.311 | 0.21 | 0.196 | 1.05 | 1.16 | 1.16 | 0.84 | 0.531 | 1.02 | 0.994 | 1.08 | 0.713 | 0.329 | 1.17 | 1.24 | 1.17 | 0.835 | 0.694
3 | NCI-H2023 | 0.345 | 0.316 | 0.302 | 0.163 | 0.129 | 0.403 | 0.536 | 0.325 | 0.149 | 0.101 | 0.605 | 0.622 | 0.525 | 0.212 | 0.106 | 0.987 | 0.886 | 0.814 | 0.352 | 0.218
4 | NCI-H2085 | 0.262 | 0.221 | 0.231 | 0.212 | 0.209 | 0.715 | 0.778 | 0.672 | 0.436 | 0.378 | 0.91 | 0.871 | 0.827 | 0.5 | 0.326 | 0.781 | 0.897 | 0.88 | 0.667 | 0.33
5 | NCI-H2087 |  | 0.852 | 0.668 | 0.131 | 0.13 | 0.865 | 0.924 | 0.795 | 0.196 | 0.165 |  | 1.02 | 0.856 | 0.571 | 0.277 | 1.04 | 1.11 | 0.859 | 0.46 | 0.221
6 | NCI-H2126 | 0.596 | 0.619 | 0.665 | 0.357 | 0.276 | 0.758 | 0.789 | 0.808 | 0.6 | 0.552 | 0.998 | 1.05 | 0.765 | 0.888 | 0.328 | 1.05 | 1.08 |  | 0.712 | 0.394
7 | NCI-H2170 | 0.504 | 0.599 | 0.638 | 0.285 | 0.389 | 0.775 | 0.815 | 0.792 | 0.58 | 0.552 | 1.06 | 1.21 |  | 1 | 0.851 | 0.988 | 1.02 | 0.917 | 0.906 | 0.765
8 | NCI-H2228 | 0.45 | 0.495 | 0.618 | 0.342 | 0.172 | 0.905 | 0.959 | 0.696 | 0.341 | 0.376 | 0.633 | 0.551 | 0.457 | 0.373 | 0.218 | 0.803 | 1.04 | 0.812 | 0.519 | 0.204
9 | NCI-H2347 | 0.258 | 0.295 | 0.266 | 0.169 | 0.23 | 0.892 | 1.05 | 0.997 | 0.51 | 0.478 | 0.677 | 0.455 | 0.408 | 0.384 | 0.339 | 0.844 | 0.981 | 0.515 | 0.59 | 0.387
10 | NCI-H2405 | 0.206 | 0.212 | 0.208 | 0.181 | 0.166 | 0.648 | 0.704 | 0.615 | 0.312 | 0.306 | 0.804 | 0.962 | 0.717 | 0.694 | 0.33 | 1.01 | 1.08 | 1.05 | 0.899 | 0.43
11 | NCI-H3122 | 0.833 | 0.999 | 0.749 | 0.366 | 0.206 | 0.737 | 0.709 | 0.778 | 0.378 | 0.349 | 0.307 | 0.288 | 0.231 | 0.262 | 0.246 | 0.972 | 0.975 | 0.962 | 0.682 | 0.449
12 | PC-3 [JPC-3] | 0.881 | 1.09 | 0.986 | 0.72 | 0.618 | 0.847 | 0.993 | 0.905 | 0.655 | 0.506 | 0.955 | 1.01 | 1.05 | 0.969 | 0.722 | 0.947 | 1.06 | 1.06 | 0.906 | 0.897
13 | PC-14 | 0.176 | 0.126 | 0.0817 | 0.0123 | 0.0118 | 0.626 | 0.534 | 0.303 | 0.0745 | 0.067 | 0.957 | 0.896 | 0.951 | 0.728 | 0.59 | 0.953 | 0.922 | 0.995 | 0.934 | 0.832
14 | RERF-LC-KJ | 0.498 | 0.56 | 0.468 | 0.246 | 0.191 | 0.58 | 0.589 | 0.53 | 0.253 | 0.266 | 0.885 | 0.798 | 0.773 | 0.685 | 0.46 | 0.788 | 0.866 | 0.639 | 0.83 | 0.767
15 | SK-LU-1 | 0.169 | 0.166 | 0.173 | 0.144 | 0.104 | 0.889 | 0.735 | 0.902 | 0.502 | 0.412 | 0.778 | 0.902 | 0.614 | 0.387 | 0.327 | 0.765 | 0.701 | 0.484 | 0.329 | 0.18
16 | SK-MES-1 | 0.329 | 0.316 | 0.232 | 0.0893 | 0.0963 | 0.731 | 0.531 | 0.59 | 0.315 | 0.185 | 0.943 | 0.957 | 0.887 | 0.433 | 0.273 | 0.856 | 1.13 | 0.719 | 0.704 | 0.433
17 | SW 1573 | 0.253 | 0.289 | 0.434 | 0.174 | 0.118 | 0.643 | 0.64 | 0.596 | 0.302 | 0.342 | 0.634 | 0.618 | 0.595 | 0.29 | 0.198 | 0.873 | 0.931 | 0.475 | 0.537 | 0.278
